Laboratory results as given in patent US20250066425A1, “POLYPEPTIDE AND APPLICATION THEREOF IN PREPARATION OF ANTI-FIBROSIS DRUG” (priority 2022, published 2025).
Residues, ends and D or L forms follow the SMILES beside them.

Experiment: toxic or side effect on mice after injection for several times (serum biochemistry)
Type: in vivo, C57 mice
Experimental: During sampling of the mice with myocardial infarction modeling for 4 weeks and intramyocardial injection of the polypeptide PAFRK29 for 5 times in Example 6, peripheral blood of the mice was collected into an anticoagulant tube and centrifuged at 1,000 g for 10 minutes. Serum of a supernatant was taken, and levels of blood urea nitrogen (BUN), serum alanine aminotransferase (ALT) and serum aspartate aminotransferase (AST) were determined by an automatic biochemical analyzer.

[1] = myocardial infarction mice, 4 weeks, intramyocardial injection 5 times, vs control group

## CC(C)[C@H](NC(=O)[C@@H]1CCCN1C(=O)[C@H](Cc1c[nH]cn1)NC(=O)[C@H](CCCCN)NC(=O)[C@H](Cc1ccc(O)cc1)NC(=O)[C@H](CCC(N)=O)NC(=O)[C@H](CCCNC(=N)N)NC(=O)[C@H](CO)NC(=O)[C@H](Cc1c[nH]cn1)NC(=O)[C@H](Cc1ccccc1)NC(=O)[C@H](Cc1ccc(O)cc1)NC(=O)[C@H](CCC(N)=O)NC(=O)CNC(=O)[C@H](CCC(N)=O)NC(=O)[C@H](Cc1ccccc1)NC(=O)[C@H](CCCNC(=N)N)NC(=O)[C@H](CCCNC(=N)N)NC(=O)[C@H](CCCNC(=N)N)NC(=O)[C@H](CCC(N)=O)NC(=O)[C@H](CCCNC(=N)N)NC(=O)[C@H](CCCNC(=N)N)NC(=O)[C@H](CCCCN)NC(=O)[C@H](CCCCN)NC(=O)[C@@H](N)CCCNC(=N)N)C(=O)NCC(=O)N[C@@H](Cc1ccc(O)cc1)C(=O)N[C@@H](CCC(=O)O)C(=O)NCC(=O)N[C@@H](CCCCN)C(=O)O [PAFRK29] (H-RKKRRQRRRFQGQYFHSRQYKHPVGYEGK-OH; N-terminus and C-terminus assumed)
At an effective anti-fibrosis dose
  toxic or side effect on the mice: no obvious toxic or side effect
[1]
  level of blood urea nitrogen (BUN): no obvious differences
  level of serum alanine aminotransferase (ALT): no obvious differences
  level of serum aspartate aminotransferase (AST): no obvious differences
